According to patent US20260364080A1, “PYRAZOLO-PYRIMIDINONE COMPOUNDS FOR USE IN METHODS OF INHIBITING WEE1 A KINASE” (Acrivon Therapeutics, Inc., priority 2023, published 2026):

Tests used:
uterine serous carcinoma = settings: phase II study, women with uterine serous carcinoma; cited from earlier work
[1] = tested on: RAS/TP53 mutated metastatic colorectal cancer; settings: cited from earlier work
ACHN cells = experiment: Cell Titer Glo viability assay, ACHN cells; type: cell-based; settings: Homo sapiens, 144 h, absolute EC50
Method in brief: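 Cells grown in MEM with 10% FCS were seeded at 500 (A427), 400 (ACHN) or 250 (DAOY) per well and treated the next day with compound at 17 to 10 000 nM. Viability relative to untreated control was read at 144 h by CellTiter-Glo 2.0.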

[2] = target: T1, Myt1 kinase (CDK1 Thr14 phosphorylation in DAOY medulloblastoma cells) (Homo sapiens, UniProt Q99640); experiment: AlphaLISA assay, Myt1 kinase target engagement (phospho-CDK1 Thr14) in DAOY cells; type: cell-based; settings: 4 h treatment, read-out: CDK1 Thr14 Phosphorylation EC50
T1 construct: pCDK1 Thr14 AlphaLISA read-out
T1 sequence (Q99640 1-499): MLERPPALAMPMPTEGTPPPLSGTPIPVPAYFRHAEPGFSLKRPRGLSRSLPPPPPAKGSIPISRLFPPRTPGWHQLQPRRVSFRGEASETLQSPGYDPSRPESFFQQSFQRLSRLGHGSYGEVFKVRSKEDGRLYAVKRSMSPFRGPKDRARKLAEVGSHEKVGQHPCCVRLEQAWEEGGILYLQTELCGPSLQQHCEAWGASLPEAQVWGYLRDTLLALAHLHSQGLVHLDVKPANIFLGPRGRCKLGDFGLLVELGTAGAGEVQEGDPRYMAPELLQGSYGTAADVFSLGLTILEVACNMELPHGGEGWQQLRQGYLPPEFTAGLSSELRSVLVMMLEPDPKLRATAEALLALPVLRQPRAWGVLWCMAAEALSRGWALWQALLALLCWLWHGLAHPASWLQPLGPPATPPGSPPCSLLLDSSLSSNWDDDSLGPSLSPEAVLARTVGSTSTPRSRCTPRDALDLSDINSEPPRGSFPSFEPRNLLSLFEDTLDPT
Method in brief: (§1)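 Cells seeded at 10,000 (DAOY) or 20,000 (ACHN) per well, treated 24 h later for 4 h with compound at 7–5000 nM. Lysates analysed by AlphaLISA SureFire Ultra phospho-CDK1 (Thr14) with donor/acceptor beads; EC50 from dose-response curves.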

[3] = target: T2, Myt1 kinase (recombinant PMYT-1) (Homo sapiens, UniProt Q99640); experiment: Myt1 kinase binding assay (LanthaScreen Eu Kinase Binding Assay); settings: 3 nM tracer 178, 2.5 nM PMYT-1, 1 nM Eu-labeled antibody; read-out: Myt1 kinase Binding IC50
T2 construct: full length PMYT-1 was expressed by baculovirus in insect cells; purchased Invitrogen A30984; host or cells: insect cells (baculovirus)
T2 sequence (Q99640 1-499): T1 sequence (Q99640 1-499)
Method in brief: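 Compound binding to Myt1 kinase was assessed using the LanthaScreen Eu Kinase Binding Assay. This europium-based binding format was applied to quantify how strongly each compound bound to the Myt1 enzyme, and the binding affinity was reported for each compound as an IC50 value.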

[4] = target: T3, Wee1A kinase (CDK1 Tyr15 phosphorylation in ACHN renal cell carcinoma cells) (Homo sapiens, UniProt P30291); experiment: High-content imaging of pCdk1 Y15, Wee1A kinase target engagement in ACHN cells; type: cell-based; settings: 4 h treatment, nuclear positivity for pCdk1 Y15 vs DMSO control, read-out: CDK1 Tyr15 Phosphorylation EC50
T3 construct: pCDK1 Tyr15 immunofluorescence read-out
Method in brief: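 EC50 values come from the per-well fraction of cells with nuclear pCdk1 Y15 staining, normalised to DMSO control, by automated immunofluorescence imaging. Cells were ACHN renal carcinoma, treated 4 h with compound at 7–5,000 nM or 0.3–200 nM.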

A427 cells = experiment: Cell Titer Glo viability assay, A427 cells; type: cell-based; settings: Homo sapiens, A-427, 144 h, absolute EC50
Experimental: (§2) Each of an ACHN renal cell carcinoma cell line (ATCC) and a DAOY medulloblastoma cell line, and an A427 lung cancer line were cultured in Minimum Essential Medium Eagle supplemented with 10% fetal calf serum (Sigma), 1% Penicillin-Streptomycin and 10 mM HEPES buffer (HyClone). Cell cultures were kept in a humidified incubator at 37 °C and 5% CO2. Cells were routinely tested for Mycoplasma contamination.
(§3) ACHN cells, DAOY cells, or A427 cells were seeded at a density of 400, 250, or 500 cells per well respectively, in tissue culture treated 384 well plates (Corning Costar). After overnight incubation, cells were treated with drugs at concentrations ranging from 17 to 10 000 nM. Viability compared to untreated control was assessed at 144 h using Cell Titer Glo assay 2.0 (Promega). […] “NT” means the compounds was not tested in the indicated cells.

[5] = target: T4, recombinant human Wee1A kinase (Homo sapiens, UniProt P30291); experiment: Wee1A kinase binding assay (LanthaScreen Eu time-resolved FRET); settings: 30 nM tracer 178, 5 nM Wee1A kinase, 2 nM Eu-labeled antibody; 60 minutes at room temperature; read-out: Wee1A kinase Binding IC50
T4 construct: full length Wee1 kinase was expressed by baculovirus in insect cells; purchased Invitrogen PV3817; host or cells: insect cells (baculovirus)
Method in brief: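 Full-length, baculovirus-expressed GST-tagged Wee1A (5 nM) was mixed with 2 nM Eu-anti-GST antibody, 30 nM kinase tracer 178 and compound (1% DMSO). Buffer was 50 mM HEPES pH 7.5, 10 mM MgCl2, 1 mM EGTA, 0.01% Brij-35, incubated 60 min at room temperature. TR-FRET 665/615 nm emission ratios from duplicates were curve-fitted.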

DAOY cells = experiment: Cell Titer Glo viability assay, DAOY cells; type: cell-based; settings: Homo sapiens, 144 h, absolute EC50
Experimental: as §2, §3

[6] = target: T5, Myt1 kinase (CDK1 Thr14 phosphorylation in ACHN renal cell carcinoma cells) (Homo sapiens, UniProt Q99640); experiment: AlphaLISA assay, Myt1 kinase target engagement (phospho-CDK1 Thr14) in ACHN cells; type: cell-based; settings: ACHN cells (marked *); 4 h treatment
T5 construct: pCDK1 Thr14 AlphaLISA read-out
T5 sequence (Q99640 1-499): T1 sequence (Q99640 1-499)
Method in brief: as §1

T3 sequence (P30291 whole entry): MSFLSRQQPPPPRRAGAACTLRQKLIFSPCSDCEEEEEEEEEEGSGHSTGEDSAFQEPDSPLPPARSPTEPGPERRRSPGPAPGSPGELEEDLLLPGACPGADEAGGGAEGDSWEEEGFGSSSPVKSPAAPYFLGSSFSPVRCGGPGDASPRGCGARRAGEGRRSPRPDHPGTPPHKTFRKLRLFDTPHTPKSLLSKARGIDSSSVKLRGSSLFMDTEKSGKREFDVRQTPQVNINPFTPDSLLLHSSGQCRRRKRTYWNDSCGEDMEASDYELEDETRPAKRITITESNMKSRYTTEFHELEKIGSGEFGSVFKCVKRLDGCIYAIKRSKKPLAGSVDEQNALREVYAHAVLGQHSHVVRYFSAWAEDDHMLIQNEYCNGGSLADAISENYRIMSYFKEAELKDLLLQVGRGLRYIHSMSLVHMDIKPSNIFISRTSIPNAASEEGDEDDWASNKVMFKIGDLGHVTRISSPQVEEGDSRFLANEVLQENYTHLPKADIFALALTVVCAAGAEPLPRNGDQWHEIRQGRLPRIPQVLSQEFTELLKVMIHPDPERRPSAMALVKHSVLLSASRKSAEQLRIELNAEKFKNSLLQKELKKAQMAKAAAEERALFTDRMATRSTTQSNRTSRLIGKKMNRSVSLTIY
T4 sequence (P30291 whole entry): as above

Compound	clinical activity (uterine serous carcinoma)	effect compared to active monitoring [1]	EC50 (ACHN cells)	EC50 [2]	IC50 [3]	EC50 [4]	EC50 (A427 cells)	IC50 [5]	EC50 (DAOY cells)	EC50 [6]
C=CCn1c(=O)c2cnc(Nc3ccc(N4CCN(C)CC4)cc3)nc2n1-c1cccc(C(C)(C)O)n1 [AZD1775, adavosertib]	promising results	shown effect compared to active monitoring	–	–	–	–	–	–	–	–
C=CCn1c(=O)c2cnc(Nc3ccc4c(cnn4C)c3)nc2n1-c1cccc(OC2CCN(C)CC2)n1 [Compound 109, 2-allyl-6-(1-methyl-1H-indazol-5-ylamino)-1-[6-(1-methyl-4-piperidyloxy)-2-pyridyl]-1,2-dihydro-3H-1,2,5,7-tetraazainden-3-one]	–	–	≤ 100 nM	< 200 nM	< 20 nM	< 100 nM	≤ 100 nM	< 10 nM	≤ 100 nM	–
CCn1c(=O)c2cnc(Nc3ccc4c(cnn4C)c3)nc2n1-c1cccc(OC2CCN(C)CC2)n1 [Compound 114, 2-ethyl-6-(1-methyl-1H-indazol-5-ylamino)-1-[6-(1-methyl-4-piperidyloxy)-2-pyridyl]-1,2-dihydro-3H-1,2,5,7-tetraazainden-3-one]	–	–	≤ 100 nM	–	20 to 100 nM	< 100 nM	100 to 500 nM	< 10 nM	≤ 100 nM	500 to 1000 nM
C=CCn1c(=O)c2cnc(Nc3ccc(Cl)cc3)nc2n1-c1cccc(OC2CCN(C)CC2)n1 [Compound 142, 2-allyl-6-((4-chlorophenyl)amino)-1-(6-((1-methylpiperidin-4-yl)oxy)pyridin-2-yl)-1,2-dihydro-3H-pyrazolo[3,4-d]pyrimidin-3-one]	–	–	≤ 100 nM	200 to 500 nM	< 20 nM	< 100 nM	100 to 500 nM	< 10 nM	100 to 500 nM	–
C=CCn1c(=O)c2cnc(Nc3cc(C)cc(F)c3)nc2n1-c1cccc(NC2CCN(C)CC2)n1 [Compound 161, 2-allyl-6-(3-fluoro-5-toluidino)-1-[6-(1-methyl-4-piperidylamino)-2-pyridyl]-1,2-dihydro-3H-1,2,5,7-tetraazainden-3-one]	–	–	≤ 100 nM	–	100 to 500 nM	< 100 nM	100 to 500 nM	< 10 nM	–	–
C=CCn1c(=O)c2cnc(Nc3ccc4c(c3)ncn4C)nc2n1-c1cccc(OC2CCN(C)CC2)n1 [Compound 211, 2-allyl-6-(1-methyl-1H-1,3-benzimidazol-5-ylamino)-1-[6-(1-methyl-4-piperidyloxy)-2-pyridyl]-1,2-dihydro-3H-1,2,5,7-tetraazainden-3-one]	–	–	≤ 100 nM	< 200 nM	20 to 100 nM	< 100 nM	≤ 100 nM	< 10 nM	≤ 100 nM	–
C=CCn1c(=O)c2cnc(Nc3ccc(OCCF)cc3)nc2n1-c1cccc(OC2CCNCC2)n1 [Compound 233, 2-allyl-6-((4-(2-fluoroethoxy)phenyl)amino)-1-(6-(piperidin-4-yloxy)pyridin-2-yl)-1,2-dihydro-3H-pyrazolo[3,4-d]pyrimidin-3-one]	–	–	≤ 100 nM	200 to 500 nM	20 to 100 nM	< 100 nM	≤ 100 nM	< 10 nM	≤ 100 nM	–
C=CCn1c(=O)c2cnc(Nc3ccc(OCCF)cc3)nc2n1-c1cccc(OC2CCN(C)CC2)n1 [Compound 234, 2-allyl-6-((4-(2-fluoroethoxy)phenyl)amino)-1-(6-((1-methylpiperidin-4-yl)oxy)pyridin-2-yl)-1,2-dihydro-3H-pyrazolo[3,4-d]pyrimidin-3-one]	–	–	≤ 100 nM	< 200 nM	20 to 100 nM	< 100 nM	≤ 100 nM	< 10 nM	≤ 100 nM	–
C=CCn1c(=O)c2cnc(Nc3ccc(OCC(F)(F)F)cc3)nc2n1-c1cccc(OC2CCN(C)CC2)n1 [Compound 291, 2-allyl-1-[6-(1-methyl-4-piperidyloxy)-2-pyridyl]-6-[p-(2,2,2-trifluoroethoxy)phenylamino]-1,2-dihydro-3H-1,2,5,7-tetraazainden-3-one]	–	–	≤ 100 nM	200 to 500 nM	20 to 100 nM	< 100 nM	≤ 100 nM	< 10 nM	≤ 100 nM	–
C=CCn1c(=O)c2cnc(Nc3cccc(C)c3)nc2n1-c1cccc(OC2CCNCC2)n1 [Compound 296, 2-allyl-1-(6-(piperidin-4-yloxy)pyridin-2-yl)-6-(m-tolylamino)-1,2-dihydro-3H-pyrazolo[3,4-d]pyrimidin-3-one]	–	–	≤ 100 nM	200 to 500 nM	20 to 100 nM	< 100 nM	≤ 100 nM	< 10 nM	≤ 100 nM	–
